Data: patent publication US12729377B2, “RNAi agents and compositions for inhibiting expression of angiopoietin-like 3 (ANGPTL3), and methods of use” (Arrowhead Pharmaceuticals, Inc., priority 2017, dated 2026)
In the oligonucleotide strings, read from the 5' end, every base follows the letter of its sugar. An asterisk marks phosphorothioate; unmarked linkages are phosphodiester. Other units and linkages are bracketed, terminal groups are in braces. A string of capitals states the bases alone. {NAG37} = tridentate N-acetyl-galactosamine targeting ligand, structure (NAG37)s; [invAb] = inverted abasic unit; m = 2'-O-methyl; f = 2'-fluoro

Tests used:
ANGPTL3 gene [1] = assay: Example 4: serum total cholesterol in mice; assay type: in vivo, C57bl/6 mice
Protocol: (§1) To assess the in vivo activity of ANGPTL3 RNAi agents that are designed to target additional positions on the ANGPTL3 gene, six- to eight-week-old female C57bl/6 mice were used. Pre-dose serum samples were taken at day −1 after a four hour fast. At day 1, each mouse was given a single subcutaneous administration of 200 μl containing either 1 mg/kg (mpk) or 0.5 mg/kg (mpk) of an ANGPTL3 RNAi agent in D5W (dextrose in 5% water), or control (D5W) with no RNAi agent, according to the dosing groups recited in Table 17.
(§2) Each of the RNAi agents included a modified sequence and an N-acetyl-galactosamine-containing targeting ligand conjugated to the 5′ terminal end of the sense strand. (See Tables 3, 4, and 5 for modified sequences and targeting ligand structures). The injections were performed between the skin and muscle (i.e. subcutaneous injections) into the loose skin over the neck and shoulder area. Three (3) mice in each group were tested (n=3). Serum was collected on days 8, 15, 22, 29, and day 43 (Groups 1-3, 9, and 11-13 only). Mice were fasted for four hours prior to each collection. ANGPTL3 protein levels in serum were measured by ELISA assay (R&D Systems), according to the manufacturer's recommendations. Triglycerides, high-density lipoprotein (HDL), and total cholesterol in serum were measured on a Cobas® Integra 400 (Roche Diagnostics), according to the manufacturer's recommendations.
(§3) The ANGPTL3 protein levels, triglyceride levels, HDL levels, and total cholesterol levels for each animal were normalized. For normalization, the level of ANGPTL3 protein, triglyceride, HDL, and total cholesterol, respectively, for each animal at a time point, was divided by the pre-treatment level of expression in that animal (in this case at day −1) to determine the ratio of expression “normalized to pre-treatment.” Expression at a specific time point was then normalized to the D5W control group by dividing the “normalized to pre-treatment” ratio for an individual animal by the mean “normalized to pretreatment” ratio of all mice in the D5W control group.

ANGPTL3 gene [2] = assay: Example 7: serum total cholesterol in mice; assay type: in vivo, C57bl/6 mice; design: key: ratio: (level/pre-treatment day -1 level) ÷ mean of D5W control group
Protocol: To further assess the in vivo activity of additional ANGPTL3 RNAi agents that are designed to target position 304 on the ANGPTL3 gene, six- to eight-week-old female C57bl/6 mice were used. Pre-dose serum samples were taken at day −1 after a four hour fast. At day 1, each mouse was given a single subcutaneous administration of 200 μl containing 0.5 mg/kg (mpk) of an ANGPTL3 RNAi agent in D5W (dextrose in 5% water), or control (D5W) with no RNAi agent, according to the dosing groups recited in Table 31.
as §2, with “22,” for “22, 29,”, “29.” for “day 43 (Groups 1-3, 9, and 11-13 only).”, “Triglycerides, total cholesterol,” for “Triglycerides,”, “low-density lipoprotein (LDL)” for “total cholesterol”
The ANGPTL3 protein levels, triglyceride levels, total cholesterol levels, HDL levels, and LDL levels for each animal were normalized. For normalization, the level of ANGPTL3 protein, triglyceride, HDL, and total cholesterol, respectively, for each animal at a time point, was divided by the pre-treatment level of expression in that animal (in this case at day −1) to determine the ratio of expression “normalized to pre-treatment.” Expression at a specific time point was then normalized to the D5W control group by dividing the “normalized to pre-treatment” ratio for an individual animal by the mean “normalized to pretreatment” ratio of all mice in the D5W control group.

ANGPTL3 gene [3] = assay: Example 3: serum triglycerides in mice; assay type: in vivo
Protocol: as §1, with “target” for “target additional”, “positions 921 and 922” for “positions”, “(mpk)” for “(mpk) or 0.5 mg/kg (mpk)”, “12.” for “17.”
as §2, with “Serum was collected on days 8, 15, 22, 29, and day 43 (Groups 1-3, 9, and 11-13 only).” left out
as §3

ANGPTL3 protein = assay: Example 3: serum ANGPTL3 protein by ELISA in mice; assay type: in vivo, C57bl/6 mice; settings: 1.0 mg/kg single subcutaneous dose on day 1, serum, female C57bl/6 mice
Protocol: as §1, with “target” for “target additional”, “positions 921 and 922” for “positions”, “(mpk)” for “(mpk) or 0.5 mg/kg (mpk)”, “12.” for “17.”
as §2, with “Serum was collected on days 8, 15, 22, 29, and day 43 (Groups 1-3, 9, and 11-13 only).” left out
as §3

ANGPTL3 gene [4] = assay: Example 3: serum HDL in mice; assay type: in vivo
Protocol: as §1, with “target” for “target additional”, “positions 921 and 922” for “positions”, “(mpk)” for “(mpk) or 0.5 mg/kg (mpk)”, “12.” for “17.”
as §2, with “Serum was collected on days 8, 15, 22, 29, and day 43 (Groups 1-3, 9, and 11-13 only).” left out
as §3

ANGPTL3 gene [5] = assay: Example 3: serum total cholesterol in mice; assay type: in vivo
Protocol: as §1, with “target” for “target additional”, “positions 921 and 922” for “positions”, “(mpk)” for “(mpk) or 0.5 mg/kg (mpk)”, “12.” for “17.”
as §2, with “Serum was collected on days 8, 15, 22, 29, and day 43 (Groups 1-3, 9, and 11-13 only).” left out
as §3

[6] = Day 8, 1.0 mg/kg single SC injection on day 1, n=3
[7] = Day 15, 1.0 mg/kg single SC injection on day 1, n=3
[8] = Day 22, 1.0 mg/kg single SC injection on day 1, n=3
[9] = Day 29, 1.0 mg/kg single SC injection on day 1, n=3
[10] = Day 43, 1.0 mg/kg single SC injection on day 1, n=3
[11] = Day 8, 0.5 mg/kg single SC injection on day 1, n=3
[12] = Day 15, 0.5 mg/kg single SC injection on day 1, n=3
[13] = Day 22, 0.5 mg/kg single SC injection on day 1, n=3
[14] = Day 29, 0.5 mg/kg single SC injection on day 1, n=3
[15] = Day 8, 1.0 mg/kg single subcutaneous dose on day 1, female C57bl/6 mice
[16] = Day 15, 1.0 mg/kg single subcutaneous dose on day 1, female C57bl/6 mice
[17] = Day 22, 1.0 mg/kg single subcutaneous dose on day 1, female C57bl/6 mice
[18] = Day 29, 1.0 mg/kg single subcutaneous dose on day 1, female C57bl/6 mice

| Substance | Avg Total Chol, normalized to pre-treatment and control (ANGPTL3 gene [1]; [6]) | Avg Total Chol, normalized to pre-treatment and control (ANGPTL3 gene [1]; [7]) | Avg Total Chol, normalized to pre-treatment and control (ANGPTL3 gene [1]; [8]) | Avg Total Chol, normalized to pre-treatment and control (ANGPTL3 gene [1]; [9]) | Avg Total Chol, normalized to pre-treatment and control (ANGPTL3 gene [1]; [10]) | Avg Total Chol, normalized to pre-treatment and control (ANGPTL3 gene [2]; [11]) | Avg Total Chol, normalized to pre-treatment and control (ANGPTL3 gene [2]; [12]) | Avg Total Chol, normalized to pre-treatment and control (ANGPTL3 gene [2]; [13]) | Avg Total Chol, normalized to pre-treatment and control (ANGPTL3 gene [2]; [14]) | Avg TG (Average Triglycerides Normalized to Pre-Treatment and Control) (ANGPTL3 gene [3]; [15]) | Avg TG (Average Triglycerides Normalized to Pre-Treatment and Control) (ANGPTL3 gene [3]; [16]) | Avg TG (Average Triglycerides Normalized to Pre-Treatment and Control) (ANGPTL3 gene [3]; [17]) | Avg TG (Average Triglycerides Normalized to Pre-Treatment and Control) (ANGPTL3 gene [3]; [18]) | Avg ANGPTL3 (Average ANGPTL3 Protein Normalized to Pre-Treatment and Control) (ANGPTL3 protein; Day 8) | Avg ANGPTL3 (Average ANGPTL3 Protein Normalized to Pre-Treatment and Control) (ANGPTL3 protein; Day 15) | Avg ANGPTL3 (Average ANGPTL3 Protein Normalized to Pre-Treatment and Control) (ANGPTL3 protein; Day 22) | Avg ANGPTL3 (Average ANGPTL3 Protein Normalized to Pre-Treatment and Control) (ANGPTL3 protein; Day 29) | Avg HDL (Average HDL Normalized to Pre-Treatment and Control) (ANGPTL3 gene [4]; [15]) | Avg HDL (Average HDL Normalized to Pre-Treatment and Control) (ANGPTL3 gene [4]; [16]) | Avg HDL (Average HDL Normalized to Pre-Treatment and Control) (ANGPTL3 gene [4]; [17]) | further results |
| --- | --- | --- | --- | --- | --- | --- | --- | --- | --- | --- | --- | --- | --- | --- | --- | --- | --- | --- | --- | --- | --- |
| AD05488: RNAi agent duplex: antisense AM07235-AS, sense AM07234-SS (antisense mU*fA*mC*fUmGfAmUfCmAfAmAfUmAfUmGfUmUfGmAfG*mC; sense {NAG37}*[invAb]*mGmCmUmCmAmAmCmAfUfAfUmUmUmGmAmUmCmAmGmUmA*[invAb]) | 0.827 | 0.667 | 0.759 | 0.683 | 0.837 | 0.802 | 0.810 | 0.810 | 0.906 |  |  |  |  |  |  |  |  |  |  |  |  |
| AD05307: RNAi agent duplex: antisense AM07001-AS, sense AM07000-SS (chain 1 mU*fU*mU*fGmAfAmUfUmAfAmUfGmUfCmCfAmUfGmGmG*mC; chain 2 {NAG37}*[invAb]*mGmCmCmCmAmUmGmGfAfCfAmUmUmAmAmUmUmCmAmAmA*[invAb]) |  |  |  |  |  |  |  |  |  | 0.786 | 0.692 | 0.903 | 0.852 | 0.323 | 0.311 | 0.346 | 0.486 | 0.916 | 0.856 | 0.913 | Avg HDL (Average HDL Normalized to Pre-Treatment and Control) (ANGPTL3 gene [4]; [18]): 1.053; Avg Total Chol (Average Total Cholestrol Normalized to Pre-Treatment and Control) (ANGPTL3 gene [5]; [15]): 0.940; Avg Total Chol (Average Total Cholestrol Normalized to Pre-Treatment and Control) (ANGPTL3 gene [5]; [16]): 0.840; Avg Total Chol (Average Total Cholestrol Normalized to Pre-Treatment and Control) (ANGPTL3 gene [5]; [17]): 0.948; Avg Total Chol (Average Total Cholestrol Normalized to Pre-Treatment and Control) (ANGPTL3 gene [5]; [18]): 1.088 |
| AD05418: RNAi agent duplex: antisense AM07159-AS, sense AM07158-SS (antisense mU*fU*mU*fGmAfAmUfUmAfAmUfGmUfCmCfAmUfGmGfG*mU; sense {NAG37}*[invAb]*mAmCmCmCmAmUmGmGfAfCfAmUmUmAmAmUmUmCmAmAmA*[invAb]) | 0.818 | 0.761 | 0.915 | 0.853 | 1.002 | 0.950 | 0.878 | 0.926 | 1.023 | 0.718 | 0.791 | 0.855 | 0.881 | 0.236 | 0.290 | 0.394 | 0.517 | 0.766 | 0.823 | 0.910 | Avg HDL (Average HDL Normalized to Pre-Treatment and Control) (ANGPTL3 gene [4]; [18]): 0.916; Avg Total Chol (Average Total Cholestrol Normalized to Pre-Treatment and Control) (ANGPTL3 gene [5]; [15]): 0.783; Avg Total Chol (Average Total Cholestrol Normalized to Pre-Treatment and Control) (ANGPTL3 gene [5]; [16]): 0.842; Avg Total Chol (Average Total Cholestrol Normalized to Pre-Treatment and Control) (ANGPTL3 gene [5]; [17]): 0.916; Avg Total Chol (Average Total Cholestrol Normalized to Pre-Treatment and Control) (ANGPTL3 gene [5]; [18]): 0.953 |
